Source: patent publication US20230014445A1, “ALLOSTERIC CHROMENONE INHIBITORS OF PHOSPHOINOSITIDE 3-KINASE (PI3K) FOR THE TREATMENT OF DISEASE” (Petra Pharma Corporation, priority 2021, published 2023)
pIC50: −log10 of the molar value.

Key:
[1] = molecular target: T1, human full length PIK3KA H1047R mutant (p110α/p85α complex) (Homo sapiens, UniProt P42336, H1047R); assay: PI3K-Alpha Kinase (PIK3CA) biochemical activity, H1047R mutant (ADP-Glo); conditions: 20 uM ATP
T1 construct: Recombinant, catalytically active human full length PIK3KA Wild-type and H1047R mutant were purchased; 6xHis (N); purchased EMD Millipore Sigma 14-792M
Outline: (§1)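 ADP formation, measured by ADP-Glo luminescence after reaction to about 10% ATP conversion at 27° C., gives 10-point 4-parameter IC50 curves normalized to no-enzyme and DMSO controls. Lipid substrate was PIP2diC8 or Soy PI at 50 uM, with 20 uM ATP. WT or H1047R p110α/p85α complex (1-5 nM) was preincubated 1 h with compound.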

[2] = molecular target: T2, human full length PIK3KA Wild-type (p110α/p85α complex) (Homo sapiens, UniProt P42336); assay: PI3K-Alpha Kinase (PIK3CA) biochemical activity, wild-type (ADP-Glo); conditions: 20 uM ATP
T2 construct: Recombinant, catalytically active human full length PIK3KA Wild-type and H1047R mutant were purchased; 6xHis (N); purchased EMD Millipore Sigma 14-602M
Outline: as §1

T1 sequence (P42336 whole entry H1047R): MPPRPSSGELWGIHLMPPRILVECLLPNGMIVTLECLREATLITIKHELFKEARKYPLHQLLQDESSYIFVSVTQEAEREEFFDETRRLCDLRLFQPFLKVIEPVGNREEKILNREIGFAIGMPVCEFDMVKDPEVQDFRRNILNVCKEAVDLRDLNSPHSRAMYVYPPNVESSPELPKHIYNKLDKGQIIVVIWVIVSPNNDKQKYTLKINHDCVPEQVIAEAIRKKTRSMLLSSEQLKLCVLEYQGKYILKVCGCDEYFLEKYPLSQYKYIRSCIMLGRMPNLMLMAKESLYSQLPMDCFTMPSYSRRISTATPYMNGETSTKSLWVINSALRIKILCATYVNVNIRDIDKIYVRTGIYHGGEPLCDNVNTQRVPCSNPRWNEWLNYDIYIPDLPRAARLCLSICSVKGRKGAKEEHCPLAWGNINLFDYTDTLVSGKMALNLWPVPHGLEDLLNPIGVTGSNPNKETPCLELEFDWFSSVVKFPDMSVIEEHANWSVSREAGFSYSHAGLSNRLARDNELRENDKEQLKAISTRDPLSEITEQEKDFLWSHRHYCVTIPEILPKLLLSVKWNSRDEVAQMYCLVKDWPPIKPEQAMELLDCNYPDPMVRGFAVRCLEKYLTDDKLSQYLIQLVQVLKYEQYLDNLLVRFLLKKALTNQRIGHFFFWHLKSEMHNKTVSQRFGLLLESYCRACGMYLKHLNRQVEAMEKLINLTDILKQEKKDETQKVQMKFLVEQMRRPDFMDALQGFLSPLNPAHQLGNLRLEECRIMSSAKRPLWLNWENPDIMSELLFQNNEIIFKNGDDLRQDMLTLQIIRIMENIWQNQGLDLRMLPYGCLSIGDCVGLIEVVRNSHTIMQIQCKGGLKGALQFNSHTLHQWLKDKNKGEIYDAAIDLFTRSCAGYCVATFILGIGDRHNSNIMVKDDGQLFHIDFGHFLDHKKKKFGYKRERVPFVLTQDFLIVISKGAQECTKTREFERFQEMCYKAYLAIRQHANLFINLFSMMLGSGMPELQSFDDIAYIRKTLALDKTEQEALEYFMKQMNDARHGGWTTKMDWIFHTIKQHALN
T1 sequence (P27986 whole entry partner): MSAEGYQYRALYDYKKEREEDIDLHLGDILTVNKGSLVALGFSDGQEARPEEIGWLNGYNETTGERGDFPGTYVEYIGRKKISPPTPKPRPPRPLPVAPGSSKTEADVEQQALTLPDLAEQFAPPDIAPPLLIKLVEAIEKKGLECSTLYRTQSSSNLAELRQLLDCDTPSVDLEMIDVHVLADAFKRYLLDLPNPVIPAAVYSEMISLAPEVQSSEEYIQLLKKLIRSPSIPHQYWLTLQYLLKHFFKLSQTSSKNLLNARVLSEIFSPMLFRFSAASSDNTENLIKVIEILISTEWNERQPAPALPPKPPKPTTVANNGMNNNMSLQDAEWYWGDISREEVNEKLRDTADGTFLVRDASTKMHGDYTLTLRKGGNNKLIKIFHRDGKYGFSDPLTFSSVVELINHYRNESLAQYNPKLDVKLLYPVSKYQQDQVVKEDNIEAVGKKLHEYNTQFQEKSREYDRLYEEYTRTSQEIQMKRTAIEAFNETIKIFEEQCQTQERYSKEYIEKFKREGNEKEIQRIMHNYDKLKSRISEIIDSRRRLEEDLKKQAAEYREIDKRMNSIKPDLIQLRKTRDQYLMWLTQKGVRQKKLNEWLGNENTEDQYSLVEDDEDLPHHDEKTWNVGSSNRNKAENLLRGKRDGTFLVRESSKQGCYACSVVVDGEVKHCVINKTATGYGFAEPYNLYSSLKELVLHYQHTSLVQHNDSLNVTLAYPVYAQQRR

| Compound | pIC50 ([1]; PIP2diC8 lipid substrate) | pIC50 ([2]; PIP2diC8 lipid substrate) | pIC50 ([1]; Soy PI lipid substrate) | pIC50 ([2]; Soy PI lipid substrate) |
| --- | --- | --- | --- | --- |
| Cc1cc(C(C)Nc2ccccc2C(=O)O)c2oc(-c3cnccn3)cc(=O)c2c1 (single isomer, unassigned; isomer 2) [Example 16, 2-[1-(6-Methyl-4-oxo-2-pyrazin-2-yl-chromen-8-yl)ethylamino]benzoic acid, Isomer 2] | < 5.00 | < 5.00 |  |  |
| COc1ccc(-n2cc(-c3oc4c(C(C)Nc5ccccc5C(=O)O)cc(C)cc4c(=O)c3C)cn2)cc1 (single isomer, unassigned) [Example 69, 2-[1-[2-[1-(4-Methoxyphenyl)pyrazol-4-yl]-3,6-dimethyl-4-oxo-chromen-8-yl]ethylamino]benzoic acid, Isomer 1,2,2,2-trifluoroacetic acid] |  |  | > 6.30 | 6.00 to 6.30 |
| COc1cccc(-c2cc(=O)c3cc(C)cc(C(C)Nc4ccccc4C(=O)O)c3o2)n1 (stereo not shown) [Example 11, 2-[1-[2-(6-Methoxy-2-pyridyl)-6-methyl-4-oxo-chromen-8-yl]ethylamino]benzoic acid 2,2,2-trifluoroacetic acid] |  |  | > 6.30 | 6.00 to 6.30 |
| Cc1cc(C(C)Nc2ccccc2C(=O)O)c2oc(-c3cnc(C)nc3)cc(=O)c2c1 (single isomer, unassigned; isomer 1) [Example 32, 2-[1-[6-Methyl-2-(2-methylpyrimidin-5-yl)-4-oxo-chromen-8-yl]ethylamino]benzoic acid, Isomer 1] | > 6.30 | 5.00 to 5.30 |  |  |
| Cc1cc(C(C)Nc2ccccc2C(=O)O)c2oc(-c3cnn(C)c3)cc(=O)c2c1 (stereo not shown) [Example 47, 2-[1-[6-Methyl-2-(1-methylpyrazol-4-yl)-4-oxo-chromen-8-yl]ethylamino]benzoic acid] | 6.00 to 6.30 | 5.30 to 6.00 |  |  |
| Cc1cc(C(C)Nc2ccccc2C(=O)O)c2oc(-c3cccc(C(F)F)n3)cc(=O)c2c1 (single isomer, unassigned; isomer 2) [Example 71, 2-[1-[2-[6-(Difluoromethyl)-2-pyridyl]-6-methyl-4-oxo-chromen-8-yl]ethylamino]benzoic acid, Isomer 2] |  |  | > 6.30 | 5.00 to 5.30 |
| Cc1cc(C(C)Nc2ccc(Cl)c(F)c2C(=O)O)c2oc(-c3ccccn3)cc(=O)c2c1 (single isomer, unassigned; isomer 1) [Example 78, 3-Chloro-2-fluoro-6-[1-[6-methyl-4-oxo-2-(2-pyridyl)chromen-8-yl]ethylamino]benzoic acid, Isomer 1] |  |  | > 6.30 | 5.00 to 5.30 |
| CC(Nc1ccccc1C(=O)O)c1cc(C(F)(F)F)cc2c(=O)cc(-c3cnn(-c4ccc(C#N)cc4)c3)oc12 (single isomer, unassigned; isomer 1) [Example 99, 2-[1-2-[1-(4-Cyanophenyl)pyrazol-4-yl]-4-oxo-6-(trifluoromethyl)chromen-8-yl]ethylamino]benzoic acid, Isomer 1] |  |  | 6.00 to 6.30 | 5.30 to 6.00 |
| Cc1cc(C(C)Nc2ccccc2C(=O)O)c2oc(-c3ccc(OC(C)C)nc3)cc(=O)c2c1 (stereo not shown) [Example 1, 2-[1-[2-(6-Isopropoxy-3-pyridyl)-6-methyl-4-oxo-chromen-8-yl]ethylamino]benzoic acid 2,2,2-trifluoroacetic acid] |  |  | 6.00 to 6.30 | < 5.00 |
| Cc1cc(C(C)Nc2ccccc2C(=O)O)c2oc(-c3ccc(F)nc3)cc(=O)c2c1 (stereo not shown) [Example 9, 2-[1-[2-(6-Fluoro-3-pyridyl)-6-methyl-4-oxo-chromen-8-yl]ethylamino]benzoic acid 2,2,2-trifluoroacetic acid] |  |  | > 6.30 | 5.00 to 5.30 |
| Cc1cc(C(C)Nc2ccccc2C(=O)O)c2oc(-c3ccc(F)cn3)cc(=O)c2c1 (stereo not shown) [Example 23, 2-[1-[2-(5-Fluoro-2-pyridyl)-6-methyl-4-oxo-chromen-8-yl]ethylamino]benzoic acid 2,2,2-trifluoroacetic acid] |  |  | > 6.30 | 5.00 to 5.30 |
